The target of one experiment is T1, human GCGR (Homo sapiens, UniProt P47871).
T1 construct: expressed in transfected cells; grown with Blasticidin and Hygromycin
The experiment is described as follows: cAMP activity assay, cells expressing human GCGR.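 As to all read-outs here: cAMP production read by luminescence after one hour of peptide exposure at room temperature, EC50 from logistic curve fit, native glucagon and GLP-1 as control peptides.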 In kind it is cell-based. Particulars: for GCGR/GLP1R ratio: Table 5, ratio of hGCGR EC50 to hGLP1R EC50.

For the next experiment, the target named is human GLP1R (Homo sapiens, UniProt P43220). The experiment is described as follows: cAMP activity assay, cells expressing human GLP1R. The experiment is classed as cell-based.
Chain of human GLP1R (P43220 24-463): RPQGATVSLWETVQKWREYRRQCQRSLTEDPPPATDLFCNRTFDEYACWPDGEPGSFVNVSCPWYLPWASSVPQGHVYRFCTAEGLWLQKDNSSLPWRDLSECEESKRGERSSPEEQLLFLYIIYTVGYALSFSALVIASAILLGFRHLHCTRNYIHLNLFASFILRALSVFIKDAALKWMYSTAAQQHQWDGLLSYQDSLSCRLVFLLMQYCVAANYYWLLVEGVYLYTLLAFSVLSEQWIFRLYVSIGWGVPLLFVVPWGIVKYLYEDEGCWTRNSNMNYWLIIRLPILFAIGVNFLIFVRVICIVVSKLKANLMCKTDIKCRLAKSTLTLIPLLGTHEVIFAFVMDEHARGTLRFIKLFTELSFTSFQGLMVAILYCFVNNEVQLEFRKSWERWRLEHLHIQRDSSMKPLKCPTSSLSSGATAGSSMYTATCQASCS
[1] abbreviates: Table 5, incretin peptides, cAMP, read-out: hGLP1R EC50.

Like-named read-outs stand apart in the source and are kept apart here.

T1 sequence (P47871 26-477): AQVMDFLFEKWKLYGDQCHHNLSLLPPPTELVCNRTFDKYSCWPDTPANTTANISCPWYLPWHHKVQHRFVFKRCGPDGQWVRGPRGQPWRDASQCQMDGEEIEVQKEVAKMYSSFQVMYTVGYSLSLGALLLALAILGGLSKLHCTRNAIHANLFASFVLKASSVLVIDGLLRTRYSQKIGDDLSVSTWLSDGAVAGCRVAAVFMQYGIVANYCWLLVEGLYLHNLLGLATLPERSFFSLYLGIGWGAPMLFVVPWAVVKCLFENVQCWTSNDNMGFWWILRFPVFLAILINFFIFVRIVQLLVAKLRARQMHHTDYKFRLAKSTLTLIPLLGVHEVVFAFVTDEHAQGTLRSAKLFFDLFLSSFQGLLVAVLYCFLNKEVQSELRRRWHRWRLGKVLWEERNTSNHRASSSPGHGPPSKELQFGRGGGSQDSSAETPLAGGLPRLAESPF
Description for human GCGR: (§1) Activity of the incretin peptides or the conjugates at the Glucagon receptor (GCGR) and GLP-1 receptor (GLP1R) may be measured in a cAMP activity assay as follows.
(§2) Peptides are dissolved in 100% DMSO and serially diluted to generate 10 point titrations. The peptide solutions are then transferred into 384-well assay plates (150 nL/well). Assay ready frozen cells expressing human GLP1R or human GCGR are suspended in growth media consisting of DMEM medium (GIBCO), 10% FBS (GIBCO), 1×NEAA(GIBCO), 1×P/S (GIBCO), 10 μg/mL Blasticidin (GIBCO) and 200 μg/mL Hygromycin (GIBCO). […] The cell suspensions (15 μL) are then added to the assay plates containing the peptide solutions (30,000 cells/well for human GCGR; 10,000 cells/well for human GLP1R). The cells are incubated for one hour at room temperature in the dark.
(§3) Production of cAMP may be determined using HitHunterr cAMPXS kits (DiscoverX) following the manufacturer's protocol. The plates are incubated for overnight at room temperature in the dark. Luminescence may be measured using an EnVision Multilabel plate reader (Perkin Elmer). Native GLP-1 and Glucagon (Bachem) may be used as control peptides. EC50 values may be calculated using uses a 4 parameter logistic fit based on the Levenberg-Marquardt algorithm.
Description for human GLP1R: as §1, §2, §3

Take `CCCCCCCCCCCCCCCC(=O)N[C@@H](CCC(=O)N[C@@H](CCC(=O)NCCCC[C@H](NC(=O)[C@H](CC(=O)O)NC(=O)[C@H](CO)NC(=O)[C@@H](NC(=O)[C@H](Cc1ccccc1)NC(=O)[C@@H](NC(=O)CNC(=O)[C@H](CCC(N)=O)NC(=O)[C@@H](CO)NC(=O)[C@@H](N)Cc1c[nH]cn1)[C@@H](C)O)[C@@H](C)O)C(=O)N[C@@H](CO)C(=O)N[C@@H](CCCCN)C(=O)N[C@@H](Cc1ccc(O)cc1)C(=O)N[C@@H](CC(C)C)C(=O)N[C@@H](CC(=O)O)C(=O)N[C@@H](CCC(=O)O)C(=O)N[C@@H](CCCNC(=N)N)C(=O)N[C@@H](C)C(=O)N[C@@H](C)C(=O)N[C@@H](CCC(N)=O)C(=O)N[C@@H](CC(=O)O)C(=O)N[C@@H](Cc1ccccc1)C(=O)N[C@H](C(=O)N[C@@H](CCCCN=[N+]=[N-])C(=O)N[C@@H](Cc1c[nH]c2ccccc12)C(=O)N[C@@H](CC(C)C)C(=O)N[C@@H](CC(C)C)C(=O)N[C@@H](CCC(=O)N[C@H](C(N)=O)[C@@H](C)O)C(=O)O)C(C)C)C(=O)O)C(=O)O` [PEP11]: at human GCGR, the EC50 is 0.03 nM and the GCGR/GLP1R ratio was 0.4. Besides, on human GLP1R (setting [1]), the EC50 came to 0.06 nM.
Turning to `CCCCCCCCCCCCCCCC(=O)N[C@@H](CCC(=O)N[C@@H](CCC(=O)NCCCC[C@H](NC(=O)[C@H](CC(=O)O)NC(=O)[C@H](CO)NC(=O)[C@@H](NC(=O)[C@H](Cc1ccccc1)NC(=O)[C@@H](NC(=O)CNC(=O)[C@H](CCC(N)=O)NC(=O)[C@@H](CO)NC(=O)[C@@H](N)Cc1c[nH]cn1)[C@@H](C)O)[C@@H](C)O)C(=O)N[C@@H](CO)C(=O)N[C@@H](CCCCN)C(=O)N[C@@H](Cc1ccc(O)cc1)C(=O)N[C@@H](CC(C)C)C(=O)N[C@@H](CC(=O)O)C(=O)N[C@@H](CC(N)=O)C(=O)N[C@@H](CCCCN)C(=O)N[C@@H](CCCNC(=N)N)C(=O)N[C@@H](C)C(=O)N[C@@H](CCC(N)=O)C(=O)N[C@@H](CC(=O)O)C(=O)N[C@@H](Cc1ccccc1)C(=O)N[C@H](C(=O)N[C@@H](CCCCN=[N+]=[N-])C(=O)N[C@@H](Cc1c[nH]c2ccccc12)C(=O)N[C@@H](CC(C)C)C(=O)N[C@@H](CC(C)C)C(=O)N[C@@H](CCC(N)=O)C(=O)N[C@H](C(N)=O)[C@@H](C)O)C(C)C)C(=O)O)C(=O)O` [PEP12], at human GCGR, the EC50 was determined as 0.02 nM and the GCGR/GLP1R ratio is 0.3. At human GLP1R, the EC50 worked out at 0.07 nM.
The corresponding values for `CCCCCCCCCCCCCCCC(=O)N[C@@H](CCC(=O)N[C@@H](CCC(=O)NCCCC[C@H](NC(=O)[C@H](CC(=O)O)NC(=O)[C@H](CO)NC(=O)[C@@H](NC(=O)[C@H](Cc1ccccc1)NC(=O)[C@@H](NC(=O)CNC(=O)[C@H](CCC(N)=O)NC(=O)[C@@H](CO)NC(=O)[C@@H](N)Cc1c[nH]cn1)[C@@H](C)O)[C@@H](C)O)C(=O)N[C@@H](CO)C(=O)N[C@@H](CCCCN)C(=O)N[C@@H](Cc1ccc(O)cc1)C(=O)N[C@@H](CC(C)C)C(=O)N[C@@H](CC(=O)O)C(=O)N[C@@H](CO)C(=O)N[C@@H](CCCNC(=N)N)C(=O)N[C@@H](CCCNC(=N)N)C(=O)N[C@@H](C)C(=O)N[C@@H](Cc1c[nH]cn1)C(=O)N[C@@H](CC(=O)O)C(=O)N[C@@H](Cc1ccccc1)C(=O)N[C@H](C(=O)N[C@@H](CCCCN=[N+]=[N-])C(=O)N[C@@H](Cc1c[nH]c2ccccc12)C(=O)N[C@@H](CC(C)C)C(=O)N[C@@H](CC(C)C)C(=O)N[C@@H](CC(N)=O)C(=O)N[C@H](C(N)=O)[C@@H](C)O)C(C)C)C(=O)O)C(=O)O` [PEP13] are 0.04 nM, 0.4 and 0.1 nM.
For `CCCCCCCCCCCCCCCC(=O)N[C@@H](CCC(=O)N[C@@H](CCC(=O)NCCCC[C@H](NC(=O)[C@H](CC(=O)O)NC(=O)[C@H](CO)NC(=O)[C@@H](NC(=O)[C@H](Cc1ccccc1)NC(=O)[C@@H](NC(=O)CNC(=O)[C@H](CCC(N)=O)NC(=O)[C@@H](CO)NC(=O)[C@@H](N)Cc1c[nH]cn1)[C@@H](C)O)[C@@H](C)O)C(=O)N[C@@H](CO)C(=O)N[C@@H](CCCCN)C(=O)N[C@@H](Cc1ccc(O)cc1)C(=O)N[C@@H](CC(C)C)C(=O)N[C@@H](CC(=O)O)C(=O)N[C@@H](CCC(=O)O)C(=O)N[C@@H](CCCNC(=N)N)C(=O)N[C@@H](C)C(=O)N[C@@H](C)C(=O)N[C@@H](CCC(N)=O)C(=O)N[C@@H](CC(=O)O)C(=O)N[C@@H](Cc1ccccc1)C(=O)N[C@H](C(=O)N[C@@H](CCCCNC(=O)COCCOCCNC(=O)CCCCN=[N+]=[N-])C(=O)N[C@@H](Cc1c[nH]c2ccccc12)C(=O)N[C@@H](CC(C)C)C(=O)N[C@@H](CC(C)C)C(=O)N[C@@H](CC(=O)O)C(=O)N[C@H](C(N)=O)[C@@H](C)O)C(C)C)C(=O)O)C(=O)O` [PEP14], the figures for the EC50 on human GCGR and on human GLP1R were 0.05 nM and 0.07 nM, respectively. Further, the GCGR/GLP1R ratio at human GCGR came out at 0.8.
As for `CCCCCCCCCCCCCCCC(=O)N[C@@H](CCC(=O)N[C@@H](CCC(=O)NCCCC[C@H](NC(=O)[C@H](CC(=O)O)NC(=O)[C@H](CO)NC(=O)[C@@H](NC(=O)[C@H](Cc1ccccc1)NC(=O)[C@@H](NC(=O)CNC(=O)[C@H](CCC(N)=O)NC(=O)[C@@H](CO)NC(=O)[C@@H](N)Cc1c[nH]cn1)[C@@H](C)O)[C@@H](C)O)C(=O)N[C@@H](CO)C(=O)N[C@@H](CCCCN)C(=O)N[C@@H](Cc1ccc(O)cc1)C(=O)N[C@@H](CC(C)C)C(=O)N[C@@H](CC(=O)O)C(=O)N[C@@H](CCC(=O)O)C(=O)N[C@@H](CCCNC(=N)N)C(=O)N[C@@H](C)C(=O)N[C@@H](C)C(=O)N[C@@H](CCCCNC(=O)COCCOCCNC(=O)CCCCN=[N+]=[N-])C(=O)N[C@@H](CC(=O)O)C(=O)N[C@@H](Cc1ccccc1)C(=O)N[C@H](C(=O)N[C@@H](CCC(N)=O)C(=O)N[C@@H](Cc1c[nH]c2ccccc12)C(=O)N[C@@H](CC(C)C)C(=O)N[C@@H](CC(C)C)C(=O)N[C@@H](CC(=O)O)C(=O)N[C@H](C(N)=O)[C@@H](C)O)C(C)C)C(=O)O)C(=O)O` [PEP16], at human GCGR, the EC50 worked out at 0.05 nM and the GCGR/GLP1R ratio came to 0.8. Further, at human GLP1R (setting [1]), the EC50 was found to be 0.06 nM.
Turning to `CCCCCCCCCCCCCCCC(=O)N[C@@H](CCC(=O)N[C@@H](CCC(=O)NCCCC[C@H](NC(=O)[C@H](CC(=O)O)NC(=O)[C@H](CO)NC(=O)[C@@H](NC(=O)[C@H](Cc1ccccc1)NC(=O)[C@@H](NC(=O)CNC(=O)[C@H](CCC(N)=O)NC(=O)[C@@H](CO)NC(=O)[C@@H](N)Cc1c[nH]cn1)[C@@H](C)O)[C@@H](C)O)C(=O)N[C@@H](CO)C(=O)N[C@@H](CCCCN)C(=O)N[C@@H](Cc1ccc(O)cc1)C(=O)N[C@@H](CC(C)C)C(=O)N[C@@H](CC(=O)O)C(=O)N[C@@H](CCC(=O)O)C(=O)N[C@@H](CCCNC(=N)N)C(=O)N[C@@H](C)C(=O)N[C@@H](C)C(=O)N[C@@H](CCCCNC(=O)COCCOCCNC(=O)COCCOCCNC(=O)CCCCN=[N+]=[N-])C(=O)N[C@@H](CC(=O)O)C(=O)N[C@@H](Cc1ccccc1)C(=O)N[C@H](C(=O)N[C@@H](CCC(N)=O)C(=O)N[C@@H](Cc1c[nH]c2ccccc12)C(=O)N[C@@H](CC(C)C)C(=O)N[C@@H](CC(C)C)C(=O)N[C@@H](CC(=O)O)C(=O)N[C@H](C(N)=O)[C@@H](C)O)C(C)C)C(=O)O)C(=O)O` [PEP17], on human GCGR, the EC50 worked out at 0.06 nM and the GCGR/GLP1R ratio is 1.2. Moreover, the EC50 at human GLP1R (setting [1]) came to 0.05 nM.
In the case of `CC(C)C[C@H](NC(=O)[C@H](Cc1c[nH]c2ccccc12)NC(=O)[C@H](CCC(N)=O)NC(=O)[C@@H](NC(=O)[C@H](Cc1ccccc1)NC(=O)[C@H](CC(=O)O)NC(=O)[C@H](CCC(N)=O)NC(=O)[C@H](C)NC(=O)[C@H](C)NC(=O)[C@H](CCCNC(=N)N)NC(=O)C(C)(C)NC(=O)[C@H](CC(=O)O)NC(=O)[C@H](CC(C)C)NC(=O)[C@H](Cc1ccc(O)cc1)NC(=O)[C@H](CCCCN)NC(=O)[C@H](CO)NC(=O)[C@H](Cc1ccc(O)cc1)NC(=O)[C@H](CC(=O)O)NC(=O)[C@H](CO)NC(=O)[C@@H](NC(=O)[C@H](Cc1ccccc1)NC(=O)[C@@H](NC(=O)CNC(=O)[C@H](CCC(N)=O)NC(=O)C(C)(C)NC(=O)[C@@H](N)Cc1c[nH]cn1)[C@@H](C)O)[C@@H](C)O)C(C)C)C(=O)N[C@@H](CC(C)C)C(=O)N[C@@H](CC(=O)O)C(=O)N[C@H](C(=O)N[C@@H](CCCCN)C(=O)N[C@@H](CCCCN=[N+]=[N-])C(N)=O)[C@@H](C)O` [PEP18], the EC50 is 0.21 nM at human GCGR (Table 5, incretin peptides, cAMP, read-out: hGCGR_EC50) and 0.03 nM on human GLP1R (setting [1]). For the same molecule, on human GCGR, the GCGR/GLP1R ratio stood at 6.7.
Regarding `CCCCCCCCCCCCCCCC(=O)N[C@@H](CCC(=O)N[C@@H](CCC(=O)NCCCC[C@H](NC(=O)[C@H](CC(=O)O)NC(=O)[C@H](CO)NC(=O)[C@@H](NC(=O)[C@H](Cc1ccccc1)NC(=O)[C@@H](NC(=O)CNC(=O)[C@H](CCC(N)=O)NC(=O)C(C)(C)NC(=O)[C@@H](N)Cc1c[nH]cn1)[C@@H](C)O)[C@@H](C)O)C(=O)N[C@@H](CO)C(=O)N[C@@H](CCCCN)C(=O)N[C@@H](Cc1ccc(O)cc1)C(=O)N[C@@H](CC(C)C)C(=O)N[C@@H](CC(=O)O)C(=O)NC(C)(C)C(=O)N[C@@H](CCCNC(=N)N)C(=O)N[C@@H](C)C(=O)N[C@@H](C)C(=O)N[C@@H](CCC(N)=O)C(=O)N[C@@H](CC(=O)O)C(=O)N[C@@H](Cc1ccccc1)C(=O)N[C@H](C(=O)N[C@@H](CCC(N)=O)C(=O)N[C@@H](Cc1c[nH]c2ccccc12)C(=O)N[C@@H](CC(C)C)C(=O)N[C@@H](CC(C)C)C(=O)N[C@@H](CC(=O)O)C(=O)N[C@H](C(=O)N[C@@H](CCCCN)C(=O)N[C@@H](CCCCN=[N+]=[N-])C(N)=O)[C@@H](C)O)C(C)C)C(=O)O)C(=O)O` [PEP19], the GCGR/GLP1R ratio at human GCGR is 1.4. The EC50 at human GLP1R turned out to be 0.34 nM.

Source of the values: patent US20190175744A1, “INSULIN-INCRETIN CONJUGATES” (Merck Sharp & Dohme Corp., priority 2016, published 2019).
